Drawing on patent US10093683B2, “Factor XIa inhibitors” (Merck Sharp & Dohme Corp., priority 2014, dated 2018), this text covers Ki for twelve compounds.

Each structure is given as a SMILES string. Like-named read-outs stand apart in the source and are kept apart here.

For one test, the target named is Human plasma kallikrein (Homo sapiens (Human), UniProt P03952). In words: Kallikrein Assay. The class given is biochemical. The following applies: purified Human plasma kallikrein 0.5 nM, Acetyl-K-P-R-AFC, pH 7.4; Ki from IC50 by Cheng Prusoff. An outline of the steps: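 Purified human plasma kallikrein (0.5 nM final) with Acetyl-K-P-R-AFC substrate ([…]) in 50 mM HEPES pH 7.4, 150 mM NaCl, 5 mM CaCl2, 0.1% PEG 8000, after enzyme-inhibitor equilibration. Fluorescence (405 ex/510 em) under linear conditions; IC50 from four-parameter fit, converted to Ki by Cheng-Prusoff.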

A further test addresses human Factor XIa (Homo sapiens (Human), UniProt P03951). In words: Factor XIa Assay. In kind it is biochemical. The following applies: read-out: FXIa Ki. An outline of the steps:
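Ki derived from the dependence of Vo/Vi on inhibitor concentration under a competitive-inhibition model, after pre-equilibration of enzyme and inhibitor. Reaction: 40 pM human FXIa, 100 μM Z-Gly-Pro-Arg-AFC, HEPES 50 mM pH 7.4 with NaCl, CaCl2 and PEG 8000; run at room temperature or 37° C.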

Where [1] appears, read: purified human Factor XIa 40 pM, Z-Gly-Pro-Arg-AFC 100 μM, pH 7.4.

Chain of human Factor XIa (P03951 388-625): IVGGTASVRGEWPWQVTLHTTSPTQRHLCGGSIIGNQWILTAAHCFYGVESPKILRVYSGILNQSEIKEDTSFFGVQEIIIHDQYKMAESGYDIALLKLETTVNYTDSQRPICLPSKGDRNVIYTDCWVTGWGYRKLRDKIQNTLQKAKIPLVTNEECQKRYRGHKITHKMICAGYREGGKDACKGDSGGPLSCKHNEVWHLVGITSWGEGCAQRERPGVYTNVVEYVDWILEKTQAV
Chain of human Factor XIa (P03951 19-387 partner): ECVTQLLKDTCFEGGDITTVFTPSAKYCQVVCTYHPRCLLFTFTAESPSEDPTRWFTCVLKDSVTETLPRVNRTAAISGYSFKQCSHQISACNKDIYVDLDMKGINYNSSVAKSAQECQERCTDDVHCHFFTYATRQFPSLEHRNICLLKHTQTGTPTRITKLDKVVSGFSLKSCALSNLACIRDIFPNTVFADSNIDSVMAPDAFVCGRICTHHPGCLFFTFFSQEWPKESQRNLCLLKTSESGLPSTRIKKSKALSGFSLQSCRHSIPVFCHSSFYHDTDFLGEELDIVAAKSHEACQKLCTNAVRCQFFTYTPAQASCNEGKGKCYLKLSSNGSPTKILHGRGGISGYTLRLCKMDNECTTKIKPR
Chain of Human plasma kallikrein (P03952 391-638): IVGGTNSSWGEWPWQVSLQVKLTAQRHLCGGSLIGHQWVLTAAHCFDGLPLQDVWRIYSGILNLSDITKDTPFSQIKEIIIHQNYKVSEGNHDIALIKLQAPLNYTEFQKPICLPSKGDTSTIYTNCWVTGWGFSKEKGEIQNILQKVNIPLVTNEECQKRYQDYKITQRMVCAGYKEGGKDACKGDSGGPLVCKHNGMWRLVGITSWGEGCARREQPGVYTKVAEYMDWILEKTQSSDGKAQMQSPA
Chain of Human plasma kallikrein (P03952 20-390 partner): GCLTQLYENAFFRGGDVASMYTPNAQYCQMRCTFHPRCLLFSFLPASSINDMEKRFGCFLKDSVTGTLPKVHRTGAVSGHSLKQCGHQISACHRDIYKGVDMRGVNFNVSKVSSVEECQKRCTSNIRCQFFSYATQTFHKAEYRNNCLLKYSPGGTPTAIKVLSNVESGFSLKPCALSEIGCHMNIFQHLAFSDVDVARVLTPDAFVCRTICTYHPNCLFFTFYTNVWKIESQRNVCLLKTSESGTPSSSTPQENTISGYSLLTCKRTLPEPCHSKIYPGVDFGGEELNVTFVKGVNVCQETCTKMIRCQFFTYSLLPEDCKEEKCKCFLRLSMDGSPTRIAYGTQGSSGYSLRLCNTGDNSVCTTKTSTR

For `COC(=O)Nc1ccc(C(=O)N[C@@H](CC2CC2)C(=O)N2CC[C@@]3(C2)OC(=O)Nc2ccc(Cl)c(F)c23)cc1` [Example 61, methyl (4-(((S)-1-((R)-6-chloro-5-fluoro-2-oxo-1,2-dihydrospiro[benzo[d][1,3]oxazine-4,3′-pyrrolidin]-1′-yl)-3-cyclopropyl-1-oxopropan-2-yl)carbamoyl)phenyl)carbamate], the inhibition constant (Ki) at Human plasma kallikrein amounted to 11.2 nM; at human Factor XIa (setting [1]), 12.7 nM.
In the case of `O=C1Nc2ccc(Cl)c(F)c2[C@@]2(CCCN(C(=O)[C@H](CC3CC3)NC(=O)c3cc4cc(O)ccc4[nH]3)C2)O1` [Example 216], the results for the inhibition constant Ki at Human plasma kallikrein and at human Factor XIa were 1.7 nM and 37.6 nM, respectively.
With `COC(=O)Nc1ccc(C(=O)N[C@@H](Cc2ccc(NC(C)=O)cc2)C(=O)N2CCC[C@@]3(C2)OC(=O)Nc2ccc(Cl)cc23)cc1` [Example 48, methyl (4-(((S)-3-(4-acetamidophenyl)-1-((R)-6-chloro-2-oxo-1,2-dihydrospiro[benzo[d][1,3]oxazine-4,3′-piperidin]-1′-yl)-1-oxopropan-2-yl)carbamoyl)phenyl)carbamate], the Ki stood at 1.27 nM at Human plasma kallikrein and 2.01 nM at human Factor XIa (setting [1]).
For the compound `COC(=O)Nc1ccc(C(=O)N[C@@H](CC2CC2(F)F)C(=O)N2CCC[C@@]3(C2)OC(=O)Nc2ccc(Cl)c(F)c23)cc1` (single isomer, unassigned) [Example 67B], the inhibitory constant (Ki) at Human plasma kallikrein is 1.8 nM; at human Factor XIa (setting [1]) it was 7.88 nM.
Regarding `CC(C)(O)C[C@H](NC(=O)c1ccc2c(N)n[nH]c2c1)C(=O)N1CCC[C@@]2(C1)OC(=O)Nc1ccc(Cl)cc12` [Example 269], the inhibition constant (Ki) at Human plasma kallikrein came out at 3 nM; at human Factor XIa it was 5 nM.
For `NC(=O)c1ccc(C(=O)N[C@@H](Cc2ccccc2)C(=O)N2CCC[C@@]3(C2)OC(=O)Nc2ccc(Cl)c(F)c23)s1` [Example 245] the same measures were 0.65 nM and 0.97 nM.
`O=C1Nc2ccc(Cl)cc2[C@@]2(CCN(C(=O)[C@H](Cc3ccccc3)NC(=O)c3ccc4[nH]c(=O)[nH]c(=O)c4c3)C2)O1` [Example 228]: the values for the inhibition constant (Ki) on Human plasma kallikrein and on human Factor XIa were 19.3 nM and 17.1 nM, respectively.
For `Nc1n[nH]c2cc(C(=O)N[C@@H](Cc3ccncc3)C(=O)N3CC[C@@]4(C3)OC(=O)Nc3ccc(Cl)cc34)ccc12` [Example 258] the same measures were 4.08 nM and 1.73 nM.
As to `O=C1Nc2ccc(Cl)c(F)c2[C@@]2(CCCN(C(=O)[C@H](CC3CC3)NC(=O)c3ccc4c(O)n[nH]c4c3)C2)O1` [Example 215], the Ki amounted to 2.6 nM on Human plasma kallikrein and 13.8 nM at human Factor XIa.
For `O=C1Nc2ccc(Cl)c(F)c2[C@@]2(CCCN(C(=O)[C@H](Cc3ccccc3)NC(=O)c3ccc4[nH]nc(C(F)(F)F)c4c3)C2)O1` [Example 256, N—((S)-1-((R)-6-chloro-5-fluoro-2-oxo-1,2-dihydrospiro[benzo[d][1,3]oxazine-4,3′-piperidin]-1′-yl)-1-oxo-3-phenylpropan-2-yl)-3-(trifluoromethyl)-1H-indazole-5-carboxamide] the same measures were 31 nM and over 875 nM.
For `COC(=O)Nc1ccc(C(=O)N[C@@H](CC(C)C)C(=O)N2CCC[C@@]3(C2)OC(=O)Nc2ccc(Cl)cc23)cc1` [Example 60, methyl (4-(((S)-1-((R)-6-chloro-2-oxo-1,2-dihydrospiro[benzo[d][1,3]oxazine-4,3′-piperidin]-1′-yl)-4-methyl-1-oxopentan-2-yl)carbamoyl)phenyl)carbamate], the Ki on Human plasma kallikrein was determined as 3.31 nM; on human Factor XIa (setting [1]) it was 48.9 nM.
For `COC(=O)Nc1ccc(C(=O)N[C@@H](Cc2ccccc2)C(=O)N2CC[C@@]3(C2)OC(=O)Nc2ccc(Cl)cc23)cc1` [Example 6, methyl (4-(((S)-1-((R)-6-chloro-2-oxo-1,2-dihydrospiro[benzo[d][1,3]oxazine-4,3′-pyrrolidin]-1′-yl)-1-oxo-3-phenylpropan-2-yl)carbamoyl)phenyl)carbamate] the same measures were 4.02 nM and 4.7 nM.

One may read the Ki as a measure of affinity in units of concentration, obtained from inhibition or displacement.
